# The supplement of paper PMC10307832
# Experiments:
# Test in all cases: relative viability (nuclei count vs DMSO), 5 days (fraction); higher = more cells survive
# CUDC-101 + Tozasertib = compound: C#Cc1cccc(Nc2ncnc3cc(OC)c(OCCCCCCC(=O)NO)cc23)c1 [CUDC-101] + Cc1cc(Nc2cc(N3CCN(C)CC3)nc(Sc3ccc(NC(=O)C4CC4)cc3)n2)n[nH]1 [Tozasertib] (partner 0.1 µM)
# Procedure, shortened: (§1)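 Medians of duplicate plates are given as relative viability. That measure is the nuclei count in treated wells divided by the count in vehicle wells. Counts were taken on 4× images of lung cancer cell lines in 1536-well plates, 5 days after pin-tool dosing the day after seeding with one drug alone or a fixed anchor-drug dose plus five library-drug doses (not always all listed) in √10 steps.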
# [1] = compound: C1=CC=C2C(=C1)N=C(S2)C(C#N)C3=NC(=NC=C3)NCCC4=CN=CC=C4 + COc1cc2c(Oc3ccc(NC(=O)C4(C(=O)Nc5ccc(F)cc5)CC4)cc3F)ccnc2cc1OCCCN1CCOCC1 [Foretinib] (partner 0.25 µM)
# Procedure, shortened: as §1
# CUDC-101 + Palbociclib = compound: C#Cc1cccc(Nc2ncnc3cc(OC)c(OCCCCCCC(=O)NO)cc23)c1 [CUDC-101] + CC(=O)c1c(C)c2cnc(Nc3ccc(N4CCNCC4)cn3)nc2n(C2CCCC2)c1=O [Palbociclib] (partner 0.5 µM)
# Procedure, shortened: as §1
# [2] = compound: C1=CC=C2C(=C1)N=C(S2)C(C#N)C3=NC(=NC=C3)NCCC4=CN=CC=C4 + O=C(CCCCCCC(=O)Nc1ccccc1)NO [Vorinostat] (partner 1 µM)
# Procedure, shortened: as §1
Cell Line,relative viability (CUDC-101 + Tozasertib; first compound 0.01 µM),relative viability (CUDC-101 + Tozasertib; first compound 0.03162 µM),relative viability (CUDC-101 + Tozasertib; first compound 0.1 µM),relative viability (CUDC-101 + Tozasertib; first compound 0.3162 µM),relative viability (CUDC-101 + Tozasertib; first compound 1 µM),relative viability ([1]; first compound 0.005 µM),relative viability ([1]; first compound 0.01581 µM),relative viability ([1]; first compound 0.05 µM),relative viability ([1]; first compound 0.1581 µM),relative viability ([1]; first compound 0.5 µM),relative viability (CUDC-101 + Palbociclib; first compound 0.01 µM),relative viability (CUDC-101 + Palbociclib; first compound 0.03162 µM),relative viability (CUDC-101 + Palbociclib; first compound 0.1 µM),relative viability (CUDC-101 + Palbociclib; first compound 0.3162 µM),relative viability (CUDC-101 + Palbociclib; first compound 1 µM),relative viability ([2]; first compound 0.005 µM),relative viability ([2]; first compound 0.01581 µM),relative viability ([2]; first compound 0.05 µM),relative viability ([2]; first compound 0.1581 µM),relative viability ([2]; first compound 0.5 µM)
NCI-H2170,0.632,0.698,0.753,0.62,0.345,0.731,1.03,0.961,1.04,0.861,0.419,0.402,0.385,0.37,0.361,0.756,0.86,0.777,0.887,0.877
NCI-H2228,0.255,0.237,0.263,0.317,0.194,0.971,0.84,0.993,1.04,0.76,0.891,1.09,0.874,0.805,0.664,0.449,0.629,0.83,0.646,0.664
HCC-827,0.381,0.236,0.143,0.111,0.101,1.06,1.06,1.06,1.16,1.13,0.35,0.283,0.155,0.169,0.142,0.675,0.931,0.838,1.07,0.922
ChaGo-K-1,0.216,0.214,0.246,0.238,0.208,,0.954,0.838,1.06,0.932,0.918,0.908,0.94,0.909,0.738,0.584,0.809,0.702,0.863,0.724
LXF-289,0.168,0.184,0.219,0.211,0.143,0.898,1.02,0.988,1.01,0.826,0.6,0.604,0.571,0.589,0.515,0.688,0.862,0.811,1,0.729
NCI-H2342,0.592,0.55,0.474,0.437,0.453,0.926,1.17,0.997,1.04,1.17,0.526,0.547,0.523,0.505,0.556,0.621,0.811,0.737,0.776,0.756
HOP-62,0.343,0.379,0.399,0.405,0.321,0.891,1.14,1.14,1.26,0.952,0.448,0.38,0.478,0.421,0.425,0.49,0.626,0.453,0.685,0.642
LCLC-103H,0.54,0.494,0.485,0.418,0.322,0.801,0.8,0.894,0.828,0.737,0.47,0.51,0.491,0.45,0.436,0.712,0.664,0.718,0.878,0.76
LOU-NH91,0.703,0.548,0.472,0.411,0.305,0.942,0.884,0.863,0.9,0.925,0.574,0.445,0.529,0.581,0.515,0.907,0.826,0.769,1.03,0.837
NCI-H1915,0.437,0.458,0.429,0.357,0.288,1.08,1.11,1.1,1.3,1.05,0.547,0.493,0.524,0.472,0.339,,0.515,0.519,0.519,0.512
NCI-H1395,0.809,0.717,0.747,0.744,0.627,0.868,0.912,1.05,0.996,0.967,0.599,0.632,0.595,0.725,0.578,0.556,,0.707,0.788,0.611
COR-L23,0.245,0.202,0.208,0.218,0.159,0.861,1.03,0.961,1.29,0.798,0.275,0.332,0.283,0.253,0.128,0.377,0.354,0.464,0.421,0.36
NCI-H1734,0.256,0.257,0.23,0.216,0.202,,0.8,0.913,0.993,0.758,0.357,0.374,0.342,0.382,0.274,0.7,0.785,0.758,1.06,0.78
NCI-H2405,0.748,0.809,0.725,0.756,0.611,1.02,1.04,1.04,1.07,1,0.523,0.513,0.585,0.584,0.506,0.82,0.938,0.953,1.15,0.727
NCI-H2087,0.292,0.243,0.233,0.195,0.223,1.08,1.14,1.1,1.12,0.969,0.284,0.21,0.238,0.264,0.168,0.338,0.666,0.353,1,0.435
NCI-H1793,0.321,0.237,0.325,0.293,0.375,0.714,0.71,0.58,0.775,0.679,0.275,0.272,0.36,0.253,0.247,,0.465,0.713,0.829,0.811

Cell Line,relative viability (CUDC-101 + Tozasertib; first compound 0.01 µM),relative viability (CUDC-101 + Tozasertib; first compound 0.03162 µM),relative viability (CUDC-101 + Tozasertib; first compound 0.1 µM),relative viability (CUDC-101 + Tozasertib; first compound 0.3162 µM),relative viability (CUDC-101 + Tozasertib; first compound 1 µM),relative viability ([1]; first compound 0.005 µM),relative viability ([1]; first compound 0.01581 µM),relative viability ([1]; first compound 0.05 µM),relative viability ([1]; first compound 0.1581 µM),relative viability ([1]; first compound 0.5 µM),relative viability (CUDC-101 + Palbociclib; first compound 0.01 µM),relative viability (CUDC-101 + Palbociclib; first compound 0.03162 µM),relative viability (CUDC-101 + Palbociclib; first compound 0.1 µM),relative viability (CUDC-101 + Palbociclib; first compound 0.3162 µM),relative viability (CUDC-101 + Palbociclib; first compound 1 µM),relative viability ([2]; first compound 0.005 µM),relative viability ([2]; first compound 0.01581 µM),relative viability ([2]; first compound 0.05 µM),relative viability ([2]; first compound 0.1581 µM),relative viability ([2]; first compound 0.5 µM)
NCI-H2085,0.708,0.786,0.882,0.726,0.705,0.891,0.811,0.888,1.03,0.979,0.438,0.468,0.47,0.463,0.466,0.726,0.737,0.781,0.826,0.903
NCI-H358,0.103,0.117,0.127,0.101,0.114,0.635,0.677,0.776,0.772,0.642,0.148,0.152,0.141,0.137,0.119,0.568,0.642,0.557,0.708,0.558
NCI-H2023,0.336,0.337,0.363,0.328,0.293,0.708,0.933,0.857,1.09,0.907,0.42,0.342,0.457,0.416,0.361,0.566,1.09,0.454,0.763,0.607
SW 1573,0.211,0.182,0.173,0.173,0.131,0.963,0.792,0.949,0.994,0.892,0.376,0.346,0.441,0.501,0.315,0.577,0.82,0.43,0.846,0.618
SW 900,0.471,0.633,0.566,0.526,0.519,0.63,0.714,0.704,1.02,0.985,0.508,0.449,0.514,0.5,0.362,0.495,0.42,0.67,0.693,0.456
NCI-H3122,0.373,0.451,0.391,0.321,0.386,0.839,0.87,0.917,1.05,0.969,0.206,0.214,0.187,0.177,0.175,0.923,1.34,0.97,1.05,1.1
NCI-H661,0.356,0.331,0.362,0.342,0.248,1.07,1.04,0.943,1.03,1.11,0.382,0.381,0.388,0.416,0.287,0.81,0.85,0.73,0.831,0.862
NCI-H441,0.536,0.683,0.645,0.599,0.435,,0.902,0.913,1.1,0.908,0.222,0.255,0.183,0.231,0.221,0.587,0.84,0.818,0.789,0.643
PC-3 [JPC-3],0.89,0.847,0.834,0.61,0.314,0.984,1.12,1.07,1.14,0.961,0.465,0.574,0.493,0.527,0.481,0.864,,0.843,0.991,0.737
NCI-H1993,0.592,0.517,0.624,0.53,0.502,0.803,0.768,0.723,0.783,0.665,0.837,0.656,0.592,0.618,0.482,0.66,0.717,0.638,0.837,0.501
NCI-H1355,0.518,0.539,0.5,0.544,0.384,0.929,1.06,0.96,1.08,0.923,0.392,0.429,0.399,0.376,0.37,0.596,0.625,0.649,0.67,0.564
NCI-H23,0.34,0.315,0.288,0.384,0.574,0.83,0.995,0.873,1.02,1.07,0.463,0.562,0.563,0.535,0.446,,0.504,0.529,0.804,0.627
CAL-12T,0.409,0.278,0.318,0.344,0.362,1.06,1.11,0.931,1.27,0.967,0.81,0.448,0.333,0.412,0.34,0.572,0.873,0.973,0.814,0.725
ABC-1,0.139,0.186,0.189,0.166,0.128,1.2,1.01,0.935,1.12,1,0.647,0.682,0.864,0.587,0.454,1.13,,1.03,1.33,0.985
NCI-H1755,0.478,0.563,0.572,0.602,0.584,0.915,0.991,0.945,0.936,0.939,0.431,0.472,0.507,0.469,0.435,0.803,0.88,0.74,0.91,0.713
SK-LU-1,0.336,0.322,0.367,0.309,0.269,0.749,0.824,0.867,0.991,0.884,0.371,0.354,0.407,0.455,0.311,0.643,0.859,0.787,0.911,0.685
